Reference: PMC6736568, “Discovery of Novel Anti-cryptosporidial Activities From Natural Products by in vitro High-Throughput Phenotypic Screening” (Frontiers in Microbiology, 2019)
Structures can show the parent of a compound that is named as a salt. Where two headings read alike, the source gives them in different places.

How the values were obtained:
Cryptosporidium parvum = test: qRT-PCR assay of the growth of C. parvum in vitro in HCT-8 host cells (primary and secondary screening, EC50); assay type: cell-based; conditions: Cryptosporidium parvum, HCT-8; for inhibition at 3.3 µM: secondary screening at 3.3 uM, read-out: % Inhibition (3.3 uM)
[1] = primary screening at 10 uM, read-out: Inhibition (%)
[2] = primary screening at 10 uM, treated vs control

Structure (SMILES) | inhibition at 10 µM (Cryptosporidium parvum; [1]) [%] | cytotoxicity at 10 µM (in vitro) [%] | Hs18S ΔCT (HCT-8 host cells (Hs18S); human, 41 h, 10 μM) | cytotoxicity at 41 h, 10 µM (in vitro; human) [%] | Hs18S ΔCT (HCT-8 host cells (Hs18S); [2]) | also measured
NCCc1c[nH]cn1 [HISTAMINE DIHYDROCHLORIDE] | -20.6 | 1.3 |  |  |  | Hs18S ΔCT (HCT-8 host cells (Hs18S)): 0.02
COC1=C(O)C(=O)c2c(cc3oc(C(C)=O)c(O)c3c2O)C1=O [RHODOCLADONIC ACID] | 1.58 |  | -0.03 | -2.1 |  | 
C[C@@H]1CC[C@@]2(OC1)O[C@H]1C[C@H]3[C@@H]4CC[C@H]5C[C@@H](O)CC[C@]5(C)[C@H]4CC[C@]3(C)[C@H]1[C@@H]2C [TIGOGENIN] | 15.4 |  |  |  | -0.40 | cytotoxicity at 41 h, 10 µM (in vitro): -31.8%
Cc1cc(=O)oc2cc(O)c(O)cc12 [4-METHYLESCULETIN] | -3.64 | 0.7 |  |  | 0.01 | 
CCCCCCCCCCCCCCCC(=O)OCC(O)CO (stereo not drawn) [1-MONOPALMITIN] | 14.2 |  | -0.10 | -7.1 |  | 
COc1ccc(C(=O)CC(=O)O)c2c1C=CC(C)(C)O2 [URSINOIC ACID] | 14.2 |  | -0.46 | -37.5 |  | 
O=C(O)[C@]1(O)C[C@@H](O)[C@@H](O)[C@H](O)C1 [QUINIC ACID] | 69.4 |  | 0.23 | 14.6 |  | inhibition at 3.3 µM (Cryptosporidium parvum): -6%
CO[C@@H]1[C@@H](OC(N)=O)[C@@H](O)[C@H](Oc2ccc3c(O)c(NC(=O)c4ccc(O)c(CC=C(C)C)c4)c(=O)oc3c2C)OC1(C)C [NOVOBIOCIN SODIUM] | -13.6 |  | 0.10 | 6.5 |  | 
COc1cc(OC)c2c(OC)c(-c3ccc4c(c3)OCO4)c(=O)oc2c1 [DERRUSNIN] | 14.8 | -7.3 |  |  | -0.10 | 
C=CC(C1=CC(=O)C(OC)=CC1=O)c1ccccc1 (stereo not drawn) [4-METHOXYDALBERGIONE] | -28.5 |  | -0.03 | -2.3 |  | 
C=CCc1ccc2c(c1)OCO2 [SAFROLE] | 76.2 | -35.3 |  |  | -0.44 | inhibition at 3.3 µM (Cryptosporidium parvum): 8%
COc1ccc([C@@H]2CC(=O)c3c(O)cc(O)cc3O2)cc1O [HESPERETIN] | 17.6 |  | -0.02 | -1.2 |  | 
C[C@H](CCC(=O)O)[C@H]1CC[C@H]2[C@@H]3CC[C@@H]4C[C@H](O)CC[C@]4(C)[C@H]3CC[C@]12C [LITHOCHOLIC ACID] | -55.8 |  | 0.65 | 36.1 |  | 
CC(C)C1=CC2=CC[C@@H]3[C@](C)(CCC[C@@]3(C)C(=O)O)[C@H]2CC1 [ABIETIC ACID] | -58.3 | -30.7 |  |  | -0.39 | 
CC(C)[C@@H]1CC[C@@H](C)C[C@H]1OC(=O)c1ccccc1 [MENTHYL BENZOATE] | 1.74 |  | 0.24 | 15.1 |  | 
CC(=O)Oc1c(C)c(C)c2c(c1C)CCC(C)(CCCC(C)CCCC(C)CCCC(C)C)O2 (stereo not drawn) [alpha-TOCHOPHERYL ACETATE] | -13.6 |  | -0.21 | -15.8 |  | 
Cc1nccc2c1[nH]c1cc(O)ccc12 [HARMOL HYDROCHLORIDE] | -55.1 | -10.1 |  |  | -0.14 | 
COc1cc(OC)c2c(=O)c(-c3ccc4c(c3)OCO4)coc2c1 [DERRUSTONE] | 61.3 |  | 0.39 | 23.9 |  | inhibition at 3.3 µM (Cryptosporidium parvum): -77%
COc1cccc(O)c1O [3-METHOXYCATECHOL] | -66.7 |  | 0.05 | 3.2 |  | 
O=c1ccc2ccc(O)cc2o1 [UMBELLIFERONE] | -15.7 | -88.9 |  |  |  | Hs18S ΔCT (HCT-8 host cells (Hs18S)): -0.92
COc1ccc(-c2cc(=O)c3c(OC)c(OC)c(OC)cc3o2)cc1OC [SINENSETIN] | 42.8 |  | 0.39 | 23.6 |  | 
Cc1cc(=O)oc2c(O)c(O)ccc12 [4-METHYLDAPHNETIN] | -23.7 |  | -0.22 | -16.6 |  | 
O=c1ccn([C@@H]2O[C@H](CO)[C@@H](O)[C@H]2O)c(=O)[nH]1 [URIDINE] | 44.8 |  | 0.02 | 1.4 |  | 
COc1ccc2c(c1)O[C@@H]1COc3cc(OC)c(OC)cc3[C@@H]1C2=O [MUNDOSERONE] | 13.7 | 11.4 |  |  | 0.17 | 
C=C(C)[C@H]1Cc2c(ccc3c(=O)c4c(oc23)COc2cc(OC)c(OC)cc2-4)O1 [DEHYDROROTENONE] | -38.5 | -4.9 |  |  | -0.07 | 

Structure (SMILES) | inhibition at 10 µM (Cryptosporidium parvum; [1]) [%] | cytotoxicity at 10 µM (in vitro) [%] | Hs18S ΔCT (HCT-8 host cells (Hs18S); human, 41 h, 10 μM) | cytotoxicity at 41 h, 10 µM (in vitro; human) [%] | Hs18S ΔCT (HCT-8 host cells (Hs18S); [2]) | also measured
O=c1ccc2ccccc2o1 [COUMARIN] | 13 |  | -0.05 | -3.8 |  | 
O=C(/C=C/c1ccc(O)c(O)c1)O[C@@H]1C[C@](O)(C(=O)O)C[C@@H](O)[C@H]1O [CHLOROGENIC ACID] | -24.5 |  | -0.13 | -9.1 |  | 
COc1cc2ccc(=O)oc2c2ccoc12 [SPHONDIN] | -5.49 | 20.1 |  |  | 0.32 | 
CC(=O)N(O)CCCCCNC(=O)CCC(=O)N(O)CCCCCNC(=O)CCC(=O)N(O)CCCCCN [DEFEROXAMINE MESYLATE] | -48.5 |  | 0.31 | 19.6 |  | 
Cc1c(C(=O)O)c(O)cc2c1C(=O)c1c(O)c([C@@H]3O[C@H](CO)[C@@H](O)[C@H](O)[C@H]3O)c(O)c(O)c1C2=O [CARMINIC ACID] | -24.9 |  | -0.10 | -7.5 |  | 
COc1ccc2c(c1)OC[C@@H](Cc1ccc(OC)c(OC)c1)[C@H]2O | 9.9 | -6.9 |  |  | -0.10 | 
O=C1C[C@@H](c2ccc(O)cc2)Oc2cc(O)cc(O)c21 [NARINGENIN] | 47.6 |  |  | -17.3 | -0.23 | 
C=C(C)[C@H]1Cc2c(ccc3c2O[C@@H]2COc4cc(OC)c(OC)cc4[C@@H]2C3=O)O1 [ROTENONE] | 74.7 | 57.8 |  |  | 1.24 | inhibition at 3.3 µM (Cryptosporidium parvum): 76%
COc1cc(C)c(C(=O)Oc2cc(C)c(C(=O)O)c(O)c2C)c(OC)c1C [DIFFRACTAIC ACID] | -3.8 |  | 0.91 | 46.7 |  | 
CNC[C@H](O)c1ccc(O)c(O)c1 [EPINEPHRINE BITARTRATE] |  | 2.6 |  |  |  | inhibition at 10 µM (Cryptosporidium parvum): -27.1%; Hs18S ΔCT (HCT-8 host cells (Hs18S)): 0.04
COc1cc(O)c2c(c1)C(=O)c1cc(C)cc(O)c1C2=O [PHYSCION] | -57.5 | 12.9 |  |  | 0.20 | 
COc1cc(O)c2c(=O)c(OC)c(-c3ccc(OC)c(OC)c3)oc2c1 [RETUSIN] | 33.2 | 17 |  |  | 0.27 | 
C=C1CCC2C(CC2(C)C)C(=O)CCC1O (stereo not drawn) [ISOKOBUSONE] | -33.5 |  | -0.25 | -18.7 |  | 
CC(C)c1ccc2c(c1)CC[C@H]1[C@](C)(CN)CCC[C@]21C [18-AMINOABIETA-8,11,13-TRIENE SULFATE] | 47.6 |  | -0.19 | -13.9 |  | 
NCCc1ccc(O)cc1 [TYRAMINE] | -27.4 | -20.9 | -0.27 |  |  | 
COc1ccc(-c2oc3c(CC=C(C)C)c(O[C@@H]4O[C@H](CO)[C@@H](O)[C@H](O)[C@H]4O)cc(O)c3c(=O)c2O[C@@H]2O[C@@H](C)[C@H](O)[C@@H](O)[C@H]2O)cc1 [ICARIIN] | -12.3 |  | -0.22 | -16.4 |  | 
COC(=O)C[C@H]1C2(C)CC34OC5(C)O[C@@]6([C@H](OC(C)=O)C(OC(C)=O)[C@]7(C)C(/C(=C(/O)C(C)C)C(=O)O[C@H]7c7ccoc7)[C@@]6(O5)[C@H](OC(C)=O)[C@@]3(O)C2OC(=O)C(C)C)[C@]14C (stereo partly drawn) [BUSSEIN] | 85.1 |  | -0.33 | -25.3 |  | inhibition at 3.3 µM (Cryptosporidium parvum): 34%
CC[C@@]1(O)C(=O)OCc2c1cc1n(c2=O)Cc2cc3ccccc3nc2-1 [CAMPTOTHECIN] | 76 | 60.8 |  |  | 1.35 | inhibition at 3.3 µM (Cryptosporidium parvum): 59%
COc1c(-c2coc3cc4c(cc3c2=O)CC(OC(C)=O)C(C)(C)O4)ccc2c1C=CC(C)(C)O2 (stereo not drawn) [MUNDULONE ACETATE] | -3.19 |  | 0.37 | 22.6 |  | 
COc1cc2c(cc1OC)[C@@H]1C(=O)c3ccc(OC)c(CC=C(C)C)c3O[C@@H]1CO2 [ROTENONIC ACID, METHYL ETHER] | 11.8 | 18.7 |  |  | 0.30 | 
Oc1cc(O)c2c(c1)O[C@H](c1ccc(O)c(O)c1)[C@@H](O)C2 [CIANIDANOL] | 2 |  | -0.20 | -14.9 |  | 
COc1ccc(CC(=O)c2ccc(O)cc2O)cc1 [ONONETIN] | 8.27 |  | -0.18 | -12.9 |  | 
C/C1=C\CCC(=O)C2CC(C)(C)C2CC1 (stereo not drawn) [15-NORCARYOPHYLLEN-3-ONE] | -15.7 |  | -0.05 | -3.6 |  | 
O=c1c(O)cc([C@H]2Oc3cc(O)cc(O)c3C[C@H]2O)cc2c([C@H]3Oc4cc(O)cc(O)c4C[C@H]3O)cc(O)c(O)c12 [THEAFLAVIN] | 10.2 |  | 0.11 | 7.6 |  | 
COc1cc([C@@H]2c3cc4c(cc3[C@@H](O[C@@H]3O[C@@H]5CO[C@@H](C)O[C@H]5[C@H](O)[C@H]3O)[C@H]3COC(=O)[C@H]23)OCO4)cc(OC)c1O [ETOPOSIDE] | 48.5 |  | 0.40 | 24.1 |  | 
